Data taken from US20230148152A1, “METHOD OF SYNTHESIZING SINGLE-STRANDED NUCLEOTIDE SEQUENCE, BLOCKED NUCLEOSIDE TRIPHOSPHATES AND RELATED METHODS” (Agency for Science, Technology and Research, priority 2019, published 2023).

What was measured:
Format in all cases: biochemical
[1] = system: engineered terminal deoxynucleotidyl transferase (TdT); test: Tailing experiment design, screening of RT-dTTPs with eTdT as enzyme; settings: for incorporation yield, eTdT compared with rTdT: catalytic activity of rTdT compared with eTdT, FIG. 10; for incorporation into the original FAM-20-mer (21-mer product): eTdT as enzyme, PAGE, FIG. 8A and FIG. 8B
Text: (§1) In this experimental design (FIG. 5), single-stranded deoxyoligonucleotides (20 nt) 102 with FAM tagged on 5′ end reacts with RT-dNTP 104 using TdT as the catalyst, and produce 21-mer (102a and 102b).
(§2) As the incorporation is not 100%, the unreacted FAM tagged oligo will further react with natural deoxynucleotidyl triphosphates (dATP) 106, and produces tailing products 102c. The 21-mer (102a and 102b) and tailing products (102c) can be separated by polyacrylamide gel electrophoresis.
(§3) 1. Set up the following reactions
(§4) 2. Incubate the solution at 37° C. for 60 min
(§5) 3. Purification • Desalt with Zymo column Oligo Clean & Concentrator D4061 (following manufacturer's protocol) to obtain 15 μL aqueous solution and concentrate on speedvac to dry
(§6) 4. Set up the following reactions
(§7) 5. Incubate at 37° C. for 60 min
(§8) 6. Stop the reaction by heating at 70° C. for 10 min
(§9) 7. Purification • Desalt with Zymo column Oligo Clean & Concentrator D4061 (following manufacturer's protocol) to obtain 15 μL aqueous solution and concentrate on speedvac to dry
(§10) 8. Denaturing PAGE (20% urea PAGE, 200V for 90 min) • Preheat 1×TBE buffer at 65° C. • Set up gel in gel tank, flush wells, pre-run 20% urea polyacrylamide gel at 200V for 30 min • Prepare loading sample (dry sample+2.5 μL 1×TBE, 0.5 μL loading buffer), preheat sample at 95° C. for 10 min • Flush each well 3 times to remove urea in wells, load sample, and run for 90 min • Image under UV light without post staining. If post staining is needed, SYBR Gold is used.
(§11) In evaluating the RT-dTTP(s)'s incorporation and termination activities using tailing experiment design, two types of TdTs are used for the evaluation studies: recombinant TdT (rTdT) purchased from Promega and engineered TdT (eTdT).

[2] = system: template-independent terminal deoxynucleotidyl transferase (TdT) enzyme; test: Single base addition to single-stranded nucleotide sequence catalysed by TdT (overall conclusion); settings: for termination of further base incorporation: summary of tailing experiments; for incorporation in single stranded oligonucleotide via the catalysis of TdT: summary, recombinant or engineered TdT
Text: A series of screening experiments were designed and conducted to test the recognition of the reversible terminators nucleoside triphosphate reversible terminators designed in accordance with various embodiments disclosed herein by template-independent polymerase and the efficiency of the incorporation of such reversible terminators into the nucleic acid chain. In these experiments, the template-independent polymerase used is recombinant or engineered template-independent terminal deoxynucleotidyl transferase (TdT) enzyme and the initiator used is a single-stranded oligonucleotide sequence.

[3] = biological target: T1, recombinant terminal deoxynucleotidyl transferase (TdT) (Bos taurus, UniProt P06526); test: Tailing experiment design, screening of RT-dTTPs with rTdT as enzyme; settings: 37° C. for 60 min, PAGE, FIG. 6A, FIG. 7
T1 construct: purchased Promega
T1 sequence (P06526 whole entry): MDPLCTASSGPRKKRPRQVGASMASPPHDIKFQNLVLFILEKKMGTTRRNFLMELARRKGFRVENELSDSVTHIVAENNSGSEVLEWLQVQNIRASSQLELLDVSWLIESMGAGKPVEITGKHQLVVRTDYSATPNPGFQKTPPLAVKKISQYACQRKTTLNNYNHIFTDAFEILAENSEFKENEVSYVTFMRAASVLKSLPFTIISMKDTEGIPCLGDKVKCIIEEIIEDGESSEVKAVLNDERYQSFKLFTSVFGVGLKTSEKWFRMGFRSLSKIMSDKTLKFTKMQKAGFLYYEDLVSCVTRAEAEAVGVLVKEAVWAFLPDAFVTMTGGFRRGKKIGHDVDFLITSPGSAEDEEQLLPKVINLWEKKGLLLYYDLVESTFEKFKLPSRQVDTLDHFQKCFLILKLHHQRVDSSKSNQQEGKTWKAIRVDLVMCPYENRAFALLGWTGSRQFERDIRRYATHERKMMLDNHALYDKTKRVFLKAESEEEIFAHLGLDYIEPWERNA
Text: as §1, §2, §3, §4, §5, §6, §7, §8, §9, §10, §11

[4] = system: terminal deoxynucleotidyl transferase (TdT); test: Evaluation of reversibility of reversible terminators (incorporation, capping, deprotection, elongation); settings: elongation by TdT after deprotection of CE or DT
Text: Once RT-dTTP is incorporated to the single-stranded oligonucleotide, the reversible terminator needs to be removed to enable the next base incorporation. […] The reaction will produce a mixture of products which includes the reversibly terminated 21-mer (202a and 202b) and unreacted original 20-mer 202. Then azido-ddGTP 206 will be added to 3′-termini of the unreacted 20-mer 202. As 3′ termini become a dideoxynucleotide 202c, the azido oligonucleotide will not be able to further react with any dTTP via TdT. Then reversibly terminator will be removed in certain conditions, and further incorporated with natural dTTP 208 via TdT.
1. Set Up the Following Reactions
as §4
3. Purification • Desalt with Zymo column Oligo Clean & Concentrator D4061 (following protocol) to obtain 15 μL aqueous solution and concentrate on speedvac to dry
4. Add 85 μL of 30% NH4OH and heat at 80° C. for 1 h
5. Purification • Desalt with Zymo column Oligo Clean & Concentrator D4061 (following protocol) to obtain 15 μL aqueous solution and concentrate on speedvac to dry Elongation of Nucleotide with Natural dATP:
6. Set up the following reactions
7. Incubate at 37° C. for 60 min
8. Stop the reaction by heating at 70° C. for 10 min
9. Purification • Desalt with Zymo column Oligo Clean & Concentrator D4061 (following protocol) to obtain 15 μL aqueous solution and concentrate on speedvac to dry […]

rTdT = biological target: T2, rTdT (Bos taurus, UniProt P06526); test: Laddering experiment design (dATP / RT-dTTP ratios); settings: laddering experiments, FIG. 11; compared with Az-dTTP
T2 construct: purchased Promega
T2 sequence (P06526 whole entry): as above
Method: The laddering experiment design is to differentiate the ratio between natural dNTP and RT-dNTP.
as §3
2. Incubate at 37° C. for 60 min
3. Stop the reaction by heating at 70° C. for 10 min
4. Purification • Desalt with Zymo column Oligo Clean & Concentrator D4061 (following manufacturer's protocol) to obtain 15 μL aqueous solution and concentrate on speedvac to dry
as §10, with “5.” for “8.”

Cc1cn(C2CC(OCN=[N+]=[N-])C(COP(=O)(O)OP(=O)(O)OP(=O)(O)O)O2)c(=O)[nH]c1=O (stereo not shown) [Az-dTTP, reference compound]
incorporation yield, eTdT compared with rTdT [1]: much high incorporation yield than rTdT

Cc1cn([C@H]2C[C@H](OCOCC[Si](C)(C)C)[C@@H](COP(=O)(O)OP(=O)(O)OP(=O)(O)O)O2)c(=O)[nH]c1=O [SEM-dTTP, 2-(trimethylsilyl)ethoxymethyl (SEM)-dTTP]
incorporation into the original FAM-20-mer (21-mer product) [1]: gave 21-mer products
termination of further base incorporation [2]: terminate further base incorporation
incorporation in single stranded oligonucleotide via the catalysis of TdT [2]: successfully incorporated
incorporation into the original FAM-20-mer (21-mer product) [3]: gave 21-mer products

Cc1cn([C@H]2C[C@H](OCOCc3ccc([N+](=O)[O-])cc3)[C@@H](COP(=O)(O)OP(=O)(O)OP(=O)(O)O)O2)c(=O)[nH]c1=O [PNBA-dTTP, 4-nitrobenzyloxy-methyl (PNBA)-dTTP]
incorporation into the original FAM-20-mer (21-mer product) [1]: gave 21-mer products
termination of further base incorporation [2]: terminate further base incorporation
incorporation in single stranded oligonucleotide via the catalysis of TdT [2]: successfully incorporated
incorporation into the original FAM-20-mer (21-mer product) [3]: gave 21-mer products

Cc1cn([C@H]2C[C@H](OC(=O)OCCSSC(C)(C)C)[C@@H](COP(=O)(O)OP(=O)(O)OP(=O)(O)O)O2)c(=O)[nH]c1=O [DT-dTTP, disulfide carbonate (DT)-dTTP]
incorporation into the original FAM-20-mer (21-mer product) [1]: gave 21-mer products
further incorporation of natural nucleotide after deprotection [4]: able to incorporate with natural dTTP
termination of the reaction (rTdT): can terminate the reaction as well as Az-dTTP
termination of further base incorporation [2]: terminate further base incorporation
incorporation in single stranded oligonucleotide via the catalysis of TdT [2]: successfully incorporated
incorporation into the original FAM-20-mer (21-mer product) [3]: particularly good yield of 21-mer

dithianemethyl acetal (DMA)-dTTP [DMA-dTTP]
incorporation into the original FAM-20-mer (21-mer product) [1]: gave 21-mer products
termination of further base incorporation [2]: terminate further base incorporation
incorporation in single stranded oligonucleotide via the catalysis of TdT [2]: successfully incorporated
incorporation into the original FAM-20-mer (21-mer product) [3]: gave 21-mer products

C=CCOCO[C@H]1C[C@H](n2cc(C)c(=O)[nH]c2=O)O[C@@H]1COP(=O)(O)OP(=O)(O)OP(=O)(O)O [AL-dTTP, (allyloxy)methyl (ALM)-dTTP]
incorporation into the original FAM-20-mer (21-mer product) [1]: gave 21-mer products
termination of further base incorporation [2]: terminate further base incorporation
incorporation in single stranded oligonucleotide via the catalysis of TdT [2]: successfully incorporated

Cc1cn([C@H]2C[C@H](OCCC#N)[C@@H](COP(=O)(O)OP(=O)(O)OP(=O)(O)O)O2)c(=O)[nH]c1=O [CE-dTTP, 2-cyanoethyl ether (CE)-dTTP]
incorporation yield, eTdT compared with rTdT [1]: much high incorporation yield than rTdT
further incorporation of natural nucleotide after deprotection [4]: able to incorporate with natural dTTP
termination of the reaction (rTdT): can terminate the reaction as well as Az-dTTP
